Results taken from US9486506B2 (Novo Nordisk A/S, priority 2011, dated 2016).
Numbered stars: 1 amine (or outer) side, 2 acyl side, 3 side chain; on linkers, the order of the positions; unused ones are H or OH. Side chains are listed from the residue outwards. Peptide text beside a SMILES is read from it. * marks the point of attachment. C18 diacid = O=C(O)CCCCCCCCCCCCCCCCC(=O)*; γGlu = O=C(O)[C@H](CCC(=O)[*:2])N[*:1]; AEEA = NCCOCCOCC(=O)O

Experiments:
glucagon receptor = target: T1, glucagon receptor (Homo sapiens, UniProt P47871); test: Assay (I) Glucagon activity (cAMP biosensor, FLIPR); format: cell-based
T1 construct: expressed in transfected cells

[1] = Assay (X) Chemical stability assessment by RP-UPLC; format: physicochemical; conditions: pH 8.15, 14 days at 37° C. vs 5° C., 333 μM
Experimental: Chemical Stability Assessment
Lyophilized samples were dissolved in buffer (see below for detailed compositions) to a final concentration of 333 μM and a pH of 8.15, and were incubated for 14 days at 5° C. and 37° C. followed by RP-UPLC analysis. Purity was defined as the area percentage of the main peak in relation to the total area of all integrated peaks in each chromatogram. Purity loss after 14 days at 37° C. was determined as the difference in purity between the samples incubated at 5° C. and 37° C., divided by the purity of the sample after incubation for 14 days at 5° C.
RP-UPLC analysis was performed using a Waters BEH130 2.1 mm×150 mm, 1.7 μm column operated at 50° C. and a flow rate of 0.4 mL/min using a mobile phase system consisting of typically A: 50 mM Phosphate, 10 w/w % Acetonitrile pH 3 and B: 80 v/v Acetonitrile. UV-detection was performed at 215 nm. The typical gradient profile used for most of the samples is shown below.
For some individual analogues eluting at substantially different retention times compared with the majority of analogues, some adjustments to the gradient profile were made to better enable purity assessment comparison across samples. Also the composition of the channel B mobile phase component was in some of the analyses exchanged for a 90 v/v % Acetonitrile solvent solution in an attempt to better handle carry-over of material from one injection to the next in the sequence. This was however compensated for by recalculating the gradient profile appropriately.
Buffer: • 50 mM Dinatriumphosphatdihydrat • 184 mM Propylenglycol • 58 mM Phenol • pH adjusted to 8.15 with H3PO4. In cases where pH was adjusted to 8.15 after re-suspension of analogues, 0.2 M NaOH was used. Assay (XI) Pharmacokinetic Study in Minipigs

T1 sequence (P47871 26-477): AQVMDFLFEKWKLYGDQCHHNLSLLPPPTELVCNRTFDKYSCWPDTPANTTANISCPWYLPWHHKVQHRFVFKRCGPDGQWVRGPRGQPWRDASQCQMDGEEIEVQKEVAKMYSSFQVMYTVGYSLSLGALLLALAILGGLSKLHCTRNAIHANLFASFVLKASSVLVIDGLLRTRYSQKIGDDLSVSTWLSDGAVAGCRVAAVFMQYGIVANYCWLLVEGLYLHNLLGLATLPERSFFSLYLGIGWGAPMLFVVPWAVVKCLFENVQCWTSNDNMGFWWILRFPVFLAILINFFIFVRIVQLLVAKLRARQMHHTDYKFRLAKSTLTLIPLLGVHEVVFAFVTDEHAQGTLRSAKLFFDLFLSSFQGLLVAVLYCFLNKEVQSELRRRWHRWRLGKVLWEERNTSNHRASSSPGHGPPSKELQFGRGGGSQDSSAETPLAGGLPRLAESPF

Structure (SMILES)	EC50 (glucagon receptor)	Chemical stability [Purity loss/14 days 37 C.] [1]
CC(C)C[C@H](NC(=O)[C@H](Cc1ccc(O)cc1)NC(=O)[C@H](CCCCN)NC(=O)[C@H](CO)NC(=O)[C@H](Cc1ccc(O)cc1)NC(=O)[C@H](CC(=O)O)NC(=O)[C@H](CO)NC(=O)[C@@H](NC(=O)[C@H](Cc1ccccc1)NC(=O)[C@@H](NC(=O)CNC(=O)[C@H](CCC(N)=O)NC(=O)[C@H](CO)NC(=O)[C@@H](N)Cc1c[nH]cn1)[C@@H](C)O)[C@@H](C)O)C(=O)N[C@@H](CCC(=O)O)C(=O)N[C@@H](CO)C(=O)N[C@@H](CCCNC(=N)N)C(=O)N[C@@H](CCCNC(=N)N)C(=O)N[C@@H](C)C(=O)N[C@@H](CCC(N)=O)C(=O)N[C@@H](CC(=O)O)C(=O)N[C@@H](Cc1ccccc1)C(=O)N[C@H](C(=O)N[C@@H](CCCCNC(=O)CC[C@H](NC(=O)CC[C@H](NC(=O)COCCOCCNC(=O)CC[C@H](NC(=O)CCCCCCCCCCCCCCCCC(=O)O)C(=O)O)C(=O)O)C(=O)O)C(=O)N[C@@H](Cc1c[nH]c2ccccc12)C(=O)N[C@@H](CC(C)C)C(=O)N[C@@H](CC(C)C)C(=O)N[C@@H](CO)C(=O)N[C@H](C(=O)O)[C@@H](C)O)C(C)C [Example 1, N^ε24-[(4S)-4-carboxy-4-[[(4S)-4-carboxy-4-[[2-[2-[2-[[(4S)-4-carboxy-4-(17-carboxyheptadecanoylamino)butanoyl]amino]ethoxy]ethoxy]acetyl]amino]butanoyl]amino]butanoyl]-[Glu^15,Lys^24,Leu^27,Ser^28]-Glucagon]	0.28 nM	7.6%
CC(C)C[C@H](NC(=O)[C@H](Cc1ccc(O)cc1)NC(=O)[C@H](CCCCN)NC(=O)[C@H](CO)NC(=O)[C@H](Cc1ccc(O)cc1)NC(=O)[C@H](CC(=O)O)NC(=O)[C@H](CO)NC(=O)[C@@H](NC(=O)[C@H](Cc1ccccc1)NC(=O)[C@@H](NC(=O)CNC(=O)[C@H](Cc1c[nH]cn1)NC(=O)[C@H](CO)NC(=O)[C@@H](N)Cc1c[nH]cn1)[C@@H](C)O)[C@@H](C)O)C(=O)N[C@@H](CC(=O)O)C(=O)N[C@@H](CCC(=O)O)C(=O)N[C@@H](CCCNC(=N)N)C(=O)N[C@@H](CCCNC(=N)N)C(=O)N[C@@H](C)C(=O)N[C@@H](CCCCN)C(=O)N[C@@H](CC(=O)O)C(=O)N[C@@H](Cc1ccccc1)C(=O)N[C@H](C(=O)N[C@@H](CCCCNC(=O)CC[C@H](NC(=O)CC[C@H](NC(=O)COCCOCCNC(=O)COCCOCCNC(=O)CC[C@H](NC(=O)CCCCCCCCCCCCCCCCC(=O)O)C(=O)O)C(=O)O)C(=O)O)C(=O)N[C@@H](Cc1c[nH]c2ccccc12)C(=O)N[C@@H](CC(C)C)C(=O)N[C@@H](CC(C)C)C(=O)N[C@@H](CO)C(=O)N[C@H](C(=O)O)[C@@H](C)O)C(C)C [Example 4, N^ε24-[(4S)-4-carboxy-4-[[(4S)-4-carboxy-4-[[2-[2-[2-[[2-[2-[2-[[(4S)-4-carboxy-4-(17-carboxyheptadecanoylamino)butanoyl]amino]ethoxy]ethoxy]acetyl]amino]ethoxy]ethoxy]acetyl]amino]butanoyl]amino]butanoyl]-[His^3,Glu^16,Lys^20,Lys^24,Leu^27,Ser^28]-Glucagon] (H-HSHGTFTSDYSKYLDERRAKDFVK([γGlu-γGlu-AEEA-AEEA-γGlu-C18 diacid])WLLST-OH)	0.237 nM	7.5%
CC(C)C[C@H](NC(=O)[C@H](Cc1c[nH]c2ccccc12)NC(=O)[C@H](CCCCNC(=O)CC[C@H](NC(=O)CC[C@H](NC(=O)COCCOCCNC(=O)COCCOCCNC(=O)CC[C@H](NC(=O)CCCCCCCCCCCCCCCCC(=O)O)C(=O)O)C(=O)O)C(=O)O)NC(=O)[C@@H](NC(=O)[C@H](Cc1ccccc1)NC(=O)[C@H](CC(=O)O)NC(=O)[C@H](CCC(N)=O)NC(=O)[C@H](C)NC(=O)[C@H](CCCNC(=N)N)NC(=O)[C@H](CCCNC(=N)N)NC(=O)[C@@H](NC(=O)[C@H](CCC(=O)O)NC(=O)[C@H](CC(C)C)NC(=O)[C@H](Cc1ccc(O)cc1)NC(=O)[C@H](CCCCN)NC(=O)[C@H](CO)NC(=O)[C@H](Cc1ccc(O)cc1)NC(=O)[C@H](CC(=O)O)NC(=O)[C@H](CO)NC(=O)[C@@H](NC(=O)[C@H](Cc1ccccc1)NC(=O)[C@@H](NC(=O)CNC(=O)[C@H](Cc1c[nH]cn1)NC(=O)[C@H](CO)NC(=O)[C@@H](N)Cc1c[nH]cn1)[C@@H](C)O)[C@@H](C)O)[C@@H](C)O)C(C)C)C(=O)N[C@@H](CC(C)C)C(=O)N[C@@H](CC(N)=O)C(=O)N[C@H](C(=O)O)[C@@H](C)O [Example 9, N^ε24-[(4S)-4-carboxy-4-[[(4S)-4-carboxy-4-[[2-[2-[2-[[2-[2-[2-[[(4S)-4-carboxy-4-(17-carboxyheptadecanoylamino)butanoyl]amino]ethoxy]ethoxy]acetyl]amino]ethoxy]ethoxy]acetyl]amino]butanoyl]amino]butanoyl]-[His^3,Glu^15,Thr^16,Lys^24,Leu^27]-Glucagon] (H-HSHGTFTSDYSKYLETRRAQDFVK([γGlu-γGlu-AEEA-AEEA-γGlu-C18 diacid])WLLNT-OH)	0.036 nM	10%
CC(C)C[C@H](NC(=O)[C@H](Cc1c[nH]c2ccccc12)NC(=O)[C@H](CCCCNC(=O)CC[C@H](NC(=O)CC[C@H](NC(=O)COCCOCCNC(=O)COCCOCCNC(=O)CC[C@H](NC(=O)CCCCCCCCCCCCCCCCC(=O)O)C(=O)O)C(=O)O)C(=O)O)NC(=O)[C@@H](NC(=O)[C@H](Cc1ccccc1)NC(=O)[C@H](CC(=O)O)NC(=O)[C@H](CCC(N)=O)NC(=O)[C@H](C)NC(=O)[C@H](CCCNC(=N)N)NC(=O)[C@H](CCCNC(=N)N)NC(=O)[C@@H](NC(=O)[C@H](CC(=O)O)NC(=O)[C@H](CC(C)C)NC(=O)[C@H](Cc1ccc(O)cc1)NC(=O)[C@H](CCCNC(=N)N)NC(=O)[C@H](CO)NC(=O)[C@H](Cc1ccc(O)cc1)NC(=O)[C@H](CC(=O)O)NC(=O)[C@H](CO)NC(=O)[C@@H](NC(=O)[C@H](Cc1ccccc1)NC(=O)[C@@H](NC(=O)CNC(=O)[C@H](CCC(N)=O)NC(=O)[C@H](CO)NC(=O)[C@@H](N)Cc1c[nH]cn1)[C@@H](C)O)[C@@H](C)O)[C@@H](C)O)C(C)C)C(=O)N[C@@H](CC(C)C)C(=O)N[C@@H](CC(N)=O)C(=O)N[C@H](C(=O)O)[C@@H](C)O [Example 10, N^ε24-[(4S)-4-carboxy-4-[[(4S)-4-carboxy-4-[[2-[2-[2-[[2-[2-[2-[[(4S)-4-carboxy-4-(17-carboxyheptadecanoylamino)butanoyl]amino]ethoxy]ethoxy]acetyl]amino]ethoxy]ethoxy]acetyl]amino]butanoyl]amino]butanoyl]-[Arg^12,Thr^16,Lys^24,Leu^27]-Glucagon] (H-HSQGTFTSDYSRYLDTRRAQDFVK([γGlu-γGlu-AEEA-AEEA-γGlu-C18 diacid])WLLNT-OH)	0.031 nM	10.3%
CC(C)C[C@H](NC(=O)[C@H](Cc1ccc(O)cc1)NC(=O)[C@H](CCCNC(=N)N)NC(=O)[C@H](CO)NC(=O)[C@H](Cc1ccc(O)cc1)NC(=O)[C@H](CC(=O)O)NC(=O)[C@H](CO)NC(=O)[C@@H](NC(=O)[C@H](Cc1ccccc1)NC(=O)[C@@H](NC(=O)CNC(=O)[C@H](CCC(N)=O)NC(=O)[C@H](CO)NC(=O)[C@@H](N)Cc1c[nH]cn1)[C@@H](C)O)[C@@H](C)O)C(=O)N[C@@H](CCC(=O)O)C(=O)N[C@@H](CO)C(=O)N[C@@H](CCCNC(=N)N)C(=O)N[C@@H](CCCNC(=N)N)C(=O)N[C@@H](C)C(=O)N[C@@H](CCC(N)=O)C(=O)N[C@@H](CC(=O)O)C(=O)N[C@@H](Cc1ccccc1)C(=O)N[C@H](C(=O)N[C@@H](CCCCNC(=O)CC[C@H](NC(=O)CC[C@H](NC(=O)COCCOCCNC(=O)COCCOCCNC(=O)CC[C@H](NC(=O)CCCCCCCCCCCCCCCCC(=O)O)C(=O)O)C(=O)O)C(=O)O)C(=O)N[C@@H](Cc1c[nH]c2ccccc12)C(=O)N[C@@H](CC(C)C)C(=O)N[C@@H](CC(C)C)C(=O)N[C@@H](CO)C(=O)N[C@H](C(=O)O)[C@@H](C)O)C(C)C [Example 14, N^ε24-[(4S)-4-carboxy-4-[[(4S)-4-carboxy-4-[[2-[2-[2-[[2-[2-[2-[[(4S)-4-carboxy-4-(17-carboxyheptadecanoylamino)butanoyl]amino]ethoxy]ethoxy]acetyl]amino]ethoxy]ethoxy]acetyl]amino]butanoyl]amino]butanoyl]-[Arg^12,Glu^15,Lys^24,Leu^27,Ser^25]-Glucagon] (H-HSQGTFTSDYSRYLESRRAQDFVK([γGlu-γGlu-AEEA-AEEA-γGlu-C18 diacid])WLLST-OH; N-terminus and C-terminus assumed)	–	8.6%
